Values quoted from earlier work in US6825382B2, “Trifluoromethylepinephrine compounds and methods of making and using thereof” (The United States of America as represented by the …, priority 2002, dated 2004).
Where two headings read alike, the source gives them in different places.

Columns and labels:
[1] = 1a versus 1b

epinephrine remaining, of the initial concentration (dental preparations stored under clinical conditions)	epinephrine remaining, of the initial concentration (dental preparations stored under optimal conditions) [%]	SMILES	biological activity of (R)-enantiomer relative to (S)-enantiomer [1]
less than 70%	85 to 90	CNC[C@H](O)c1ccc(O)c(O)c1 [epinephrine]	–
–	–	CNC[C@H](O)c1ccc(O)c(O)c1 [1a, (−)-epinephrine]	15-20 times
